In patent US20220388962A1 (Biohaven Therapeutics Ltd., priority 2019, published 2022):
Structures can show the parent of a compound that is named as a salt.

Molecular target: TDP-43 (Homo sapiens, UniProt Q13148)
Assay: TDP-43-DNA alpha-screen assay (bt-TAR-32 displacement)
Assay type: binding
Settings: bt-TAR-32 0.125 nM, 15 ng/ml TDP-43
Experimental: Alpha-screen assay: Displacement of bt-TG6 binding was measured using AlphaScreen technology as previously described (Cassel, J. A. et al., Journal of Biomolecular Screening, 2010, 15, 1099-1106; Cassel, J. A.; Reitz, A. B. et al. The effects of small molecule inhibitors of nucleic acid binding to TDP-43 on TDP-43 metabolism and function. Biochimie, 2012, 94, 1974-1981).
Test compounds were diluted in assay buffer (25 mM Tris [pH 7.4], 0.1% bovine serum albumin [BSA], 0.1% Triton X-100) at 4× the desired final concentration. Dilutions of test compound (50 to 0.02 μM in half-log dilutions with a no compound control well) were pre-incubated with TDP-43 (5 μl of 60 ng/mL) pre-bound to AlphaScreen® anti-GST acceptor beads (5 μl of 40 μg/mL) in 15 μl volume for 30 minutes at 23° C. with shaking. Assays were initiated by the addition of 5 μl bt-TAR-32 (5′-CTGCTTTTTGCCTGTACTGGGTCTCTGTGGTT-3′) 0.5 nM pre-bound to AlphaScreen® strepavidin donor beads (40 μg/mL). After incubation in the dark at 23° C. for 90 minutes with shaking, the AlphaScreen® signal was measured on a Synergy 2 plate reader (BioTek, Winooski, Vt.). IC50 values were determined from nonlinear regression fits of the data to a Sigmoidal dose response variable slope model in GraphPad Prism. Final assay conditions are 25 mM Tris [pH 7.4], 0.1% bovine serum albumin [BSA], 0.100 Triton X-100, 15 ng/ml TDP-43, 0.125 nM bTAR32, 10 ug/ml […].

Chain of TDP-43 (Q13148 whole entry): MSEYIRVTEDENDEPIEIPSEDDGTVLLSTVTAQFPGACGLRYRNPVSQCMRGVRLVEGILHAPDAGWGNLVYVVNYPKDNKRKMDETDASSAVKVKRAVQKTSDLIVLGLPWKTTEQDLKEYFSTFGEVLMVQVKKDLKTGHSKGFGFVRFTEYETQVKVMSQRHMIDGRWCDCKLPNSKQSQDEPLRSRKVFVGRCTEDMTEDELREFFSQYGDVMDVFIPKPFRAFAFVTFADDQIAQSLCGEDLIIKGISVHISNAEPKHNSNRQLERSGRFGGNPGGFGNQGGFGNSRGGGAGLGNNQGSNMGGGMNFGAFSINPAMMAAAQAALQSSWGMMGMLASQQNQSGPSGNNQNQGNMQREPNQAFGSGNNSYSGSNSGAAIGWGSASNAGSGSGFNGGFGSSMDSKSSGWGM

Row | SMILES | IC50
1 | CN(CCCN)CCCNc1cc(-c2ccc(N3CCNCC3)cc2)nc2ccccc12 [Example 29, N^1-(3-aminopropyl)-N^1-methyl-N^3-(2-(4-(piperazin-1-yl)phenyl)quinolin-4-yl)propane-1,3-diamine] | 80 nM
2 | COc1ccc(-c2cc(NCCCN(C)CC3CCN(C)CC3)c3ccccc3n2)cc1 [Example 30, N^1-(2-(4-methoxyphenyl)quinolin-4-yl)-N^3-methyl-N^3-((1-methylpiperidin-4-yl)methyl)propane-1,3-diamine] | 350 nM
3 | COc1ccc(-c2cc(NCCCN(C)CCC3CCCCN3)c3ccccc3n2)cc1 (centres unmarked) [Example 31, N^1-(2-(4-methoxyphenyl)quinolin-4-yl)-N^3-methyl-N^3-(2-(piperidin-2-yl)ethyl)propane-1,3-diamine] | 350 nM
4 | COc1ccc(-c2cc(NCCCNC3CCC4CNCC43)c3ccccc3n2)cc1 (centres unmarked) [Example 33, N^1-(2-(4-Methoxyphenyl)quinolin-4-yl)-N^3-(octahydrocyclopenta[c]pyrrol-4-yl)propane-1,3-diamine dihydrochloride] | 180 nM
5 | COc1ccc(-c2cc(NCCCN3CC4CCC(N)C4C3)c3ccccc3n2)cc1 (centres unmarked) [Example 34, N-(3-(4-Aminohexahydrocyclopenta[c]pyrrol-2(1H)-yl)propyl)-2-(4-methoxyphenyl)quinolin-4-amine trihydrochloride] | 210 nM
6 | COc1ccc(-c2cc(NCCCN3CC4CCN(C(=O)OC(C)(C)C)CC4C3)c3ccccc3n2)cc1 (centres unmarked) [Example 35, tert-Butyl 2-(3-((2-(4-methoxyphenyl)quinolin-4-yl)amino)propyl) hexahydro-1H-pyrrolo[3,4-c]pyridine-5(6H)-carboxylate] | 2670 nM
7 | COc1ccc(-c2cc(NCCCN3CC4CCNCC4C3)c3ccccc3n2)cc1 (centres unmarked) [Example 36, N-(3-(Hexahydro-1H-pyrrolo[3,4-c]pyridin-2(3H)-yl)propyl)-2-(4-methoxyphenyl)quinolin-4-amine dihydrochloride] | 150 nM
8 | COc1ccc(-c2cc(NCCCN(C)CC3CCN(CC4CC4)CC3)c3ccccc3n2)cc1 [Example 38, N^1-((1-(Cyclopropylmethyl)piperidin-4-yl)methyl)-N^3-(2-(4-methoxyphenyl)quinolin-4-yl)-N^1-methylpropane-1,3-diamine] | 220 nM
9 | COc1ccc(-c2cc(NCCC3CCCCN3CCCN)c3ccccc3n2)cc1 (centres unmarked) [Example 39, N-(2-(1-(3-Aminopropyl)piperidin-2-yl)ethyl)-2-(4-methoxyphenyl) quinolin-4-amine dihydrochloride] | 130 nM
10 | COc1ccc(-c2cc(NCCCNC3CCN(Cc4ccc(F)cc4)CC3)c3ccccc3n2)cc1 [Example 40, N^1-(1-(4-Fluorobenzyl)piperidin-4-yl)-N^3-(2-(4-methoxyphenyl)quinolin-4-yl)propane-1,3-diamine] | 300 nM
11 | COc1ccc(-c2cc(NCCCN3CCC4(C3)CN(C(=O)OC(C)(C)C)C4)c3ccccc3n2)cc1 [Example 41, tert-Butyl 6-(3-((2-(4-methoxyphenyl)quinolin-4-yl)amino)propyl)-2,6-diaza spiro[3.4]octane-2-carboxylate] | 1470 nM
12 | COc1ccc(-c2cc(NCCCN3CCC4(CNC4)C3)c3ccccc3n2)cc1 [Example 42, N-(3-(2,6-Diazaspiro[3.4]octan-6-yl)propyl)-2-(4-methoxyphenyl)quinolin-4-amine] | 230 nM
13 | COc1ccc(-c2cc(NCCCN3CCCN(C)CC3)c3ccccc3n2)cc1 [Example 43, 2-(4-Methoxyphenyl)-N-(3-(4-methyl-1,4-diazepan-1-yl)propyl)quinolin-4-amine] | 1190 nM
14 | COc1ccc(-c2cc(NCCCNCCC3CCCCN3C(=O)OC(C)(C)C)c3ccccc3n2)cc1 (centres unmarked) [Example 44, tert-Butyl 2-(2-((3-((2-(4-methoxyphenyl)quinolin-4-yl)amino)propyl)amino)ethyl)piperidine-1-carboxylate] | 2070 nM
15 | COc1ccc(-c2cc(NCCCNCCC3CCCCN3)c3ccccc3n2)cc1 (centres unmarked) [Example 45, N^1-(2-(4-methoxyphenyl)quinolin-4-yl)-N^3-(2-(piperidin-2-yl)ethyl)propane-1,3-diamine] | 710 nM
16 | COc1ccc(-c2cc(NCCCN3CCN(CCCN)CC3)c3ccccc3n2)cc1 [Example 46, N-(3-(4-(3-Aminopropyl)piperazin-1-yl)propyl)-2-(4-methoxyphenyl)quinolin-4-amine hydrochloride] | 360 nM

Row | SMILES | IC50
17 | COc1ccc(-c2cc(NCCCN(C)CC3CCN(C(=O)OC(C)(C)C)CC3)c3ccccc3n2)cc1 [Example 47, tert-Butyl 4-{[(3-{[2-(4-methoxyphenyl)quinolin-4-yl]amino}propyl)(methyl)amino]methyl}piperidine-1-carboxylate] | 4050 nM
18 | COc1ccc(-c2cc(NCCCN(C)CC3CCNCC3)c3ccccc3n2)cc1 [Example 48, N-(3-(N-Methyl-N-((piperidin-4-yl)methyl)amino)propyl)-2-(4-methoxyphenyl)quinolin-4-amine] | 100 nM
19 | COc1ccc(-c2cc(NCCCNS(=O)(=O)c3ccc(-c4nn[nH]n4)cc3)c3ccccc3n2)cc1 [Example 49, N-(3-((2-(4-Methoxyphenyl)quinolin-4-yl)amino)propyl)-4-(2H-tetrazol-5-yl)benzene sulfonamide] | 7200 nM
20 | COc1ccc(-c2cc(NCCCNc3ccc(-c4nn[nH]n4)cc3)c3ccccc3n2)cc1 [Example 50, N^1-(4-(2H-Tetrazol-5-yl)phenyl)-N^3-(2-(4-methoxyphenyl)quinolin-4-yl) propane-1,3-diamine] | 15300 nM
21 | COc1ccc(-c2cc(NCCCN3CCC(CO)CC3)c3ccccc3n2)cc1 [Example 51, (1-(3-((2-(4-Methoxyphenyl)quinolin-4-yl)amino)propyl)piperidin-4-yl) methanol] | 1490 nM
22 | CCN(CC)CC(O)CNCCCNc1cc(-c2ccc(OC)cc2)nc2ccccc12 (centres unmarked) [Example 52, 1-(Diethylamino)-3-((3-((2-(4-methoxyphenyl)quinolin-4-yl)amino)propyl)amino)propan-2-ol dihydrochloride] | 170 nM
23 | COc1ccc(-c2cc(NCCCNCc3ccnn3C)c3ccccc3n2)cc1 [Example 53, N^1-(2-(4-Methoxyphenyl)quinolin-4-yl)-N^3-((1-methyl-1H-pyrazol-5-yl)methyl) propane-1,3-diamine dihydrochloride] | 3270 nM
24 | COc1ccc(-c2cc(NCCCNCCc3ccccn3)c3ccccc3n2)cc1 [Example 54, N^1-(2-(4-methoxyphenyl)quinolin-4-yl)-N^3-(2-(pyridin-2-yl)ethyl)propane-1,3-diamine hydrochloride] | 1920 nM
25 | COc1ccc(-c2cc(NCCCNc3ccc(N4CCCCC4)cc3)c3ccccc3n2)cc1 [Example 55, N^1-(2-(4-Methoxyphenyl)quinolin-4-yl)-N^3-(4-(piperidin-1-yl)phenyl) propane-1,3-diamine dihydrochloride] | 970 nM
26 | COc1ccc(-c2cc(NCC3CCCN(CCCN)C3)c3ccccc3n2)cc1 (centres unmarked) [Example 56, N-((1-(3-Aminopropyl)piperidin-3-yl)methyl)-2-(4-methoxyphenyl)quinolin-4-amine] | 300 nM
27 | COc1ccc(-c2cc(NCCCNCCc3c[nH]c4cc(OC)ccc34)c3ccccc3n2)cc1 [Example 57, N-(3-(2-(6-Methoxy-1H-indol-3-yl)ethylamino)propyl)-2-(4-methoxyphenyl) quinolin-4-amine] | 260 nM
28 | COc1ccc(-c2cc(NCCCN(CC3CCN(C(=O)OC(C)(C)C)CC3)CC3CCN(C(=O)OC(C)(C)C)CC3)c3ccccc3n2)cc1 [Example 58, tert-Butyl 4-{[({1-[(tert-butoxy)carbonyl]piperidin-4-yl}methyl)(3-{[2-(4-methoxyphenyl)-quinolin-4-yl]amino}propyl)amino]methyl}piperidine-1-carboxylate] | 26700 nM
29 | COc1ccc(-c2cc(NCCCN(CC3CCNCC3)CC3CCNCC3)c3ccccc3n2)cc1 [Example 59, N-(3-(Bis((piperidin-4-yl)methyl)amino)propyl)-2-(4-methoxyphenyl) quinolin-4-amine] | 100 nM
30 | COc1ccc(CN(C)CCCNc2cc(-c3ccc(OC)cc3)nc3ccccc23)cc1 [Example 60, N^1-(4-Methoxybenzyl)-N^3-(2-(4-methoxyphenyl)quinolin-4-yl)-N^1-methyl propane-1,3-diamine] | 1970 nM
31 | COc1ccc(-c2cc(NC3CCC(NCCCNC(=O)OC(C)(C)C)CC3)c3ccccc3n2)cc1 (centres unmarked) [Example 61, tert-Butyl(3-((4-((2-(4-methoxyphenyl)quinolin-4-yl)amino)cyclohexyl)amino)propyl)carbamate] | 1350 nM
32 | COc1ccc(-c2cc(NCCCNCC3CCN(C(=O)OC(C)(C)C)CC3)c3ccccc3n2)cc1 [Example 62, tert-Butyl 4-{[(3-{[2-(4-methoxyphenyl)quinolin-4-yl]amino}propyl)amino]methyl}piperidine-1-carboxylate] | 1160 nM
